Results: article PMC5086599 (Viruses, 2016)
Where two headings read alike, the source gives them in different places.

Assays:
[1] = test system: HIV-1 WT virus (HXB2) in Hela P4/R5 cells; test: HIV-1 single cycle replication assay, WT virus; format: cell-based; settings: read-out: EC50 against WT virus
[2] = test system: HIV-1 K103N mutant virus in Hela P4/R5 cells; test: HIV-1 single cycle replication assay, K103N mutant virus; format: cell-based
[3] = test system: HIV-1 K103N/Y188F mutant virus in Hela P4/R5 cells; test: HIV-1 single cycle replication assay, K103N/Y188F mutant virus; format: cell-based
[4] = test system: HIV-1 K103A mutant virus in Hela P4/R5 cells; test: HIV-1 single cycle replication assay, K103A mutant virus; format: cell-based
[5] = test system: HIV-1 K103E mutant virus in Hela P4/R5 cells; test: HIV-1 single cycle replication assay, K103E mutant virus; format: cell-based
[6] = test system: HIV-1 Y181C mutant virus in Hela P4/R5 cells; test: HIV-1 single cycle replication assay, Y181C mutant virus; format: cell-based
[7] = test system: HIV-1 Y188L mutant virus in Hela P4/R5 cells; test: HIV-1 single cycle replication assay, Y188L mutant virus; format: cell-based
[8] = test system: HIV-1 Y181F mutant virus in Hela P4/R5 cells; test: HIV-1 single cycle replication assay, Y181F mutant virus; format: cell-based
[9] = test system: HIV-1 Y188F mutant virus in Hela P4/R5 cells; test: HIV-1 single cycle replication assay, Y188F mutant virus; format: cell-based
[10] = test system: HIV-1 Y181F/Y188F mutant virus in Hela P4/R5 cells; test: HIV-1 single cycle replication assay, Y181F/Y188F mutant virus; format: cell-based
HIV-1 WT RT (non-bio-RT) = test system: HIV-1 WT RT (non-bio-RT); set-up: method as in earlier work; settings: reported previously, read-out: Inhibitory potency IC50 versus WT RT (non-biotinylated); cited from earlier work
[11] = Human immunodeficiency virus 1, read-out: EC50 against K103N mutant virus
[12] = Human immunodeficiency virus 1, read-out: EC50 against K103N/Y188F mutant virus
[13] = Human immunodeficiency virus 1, read-out: EC50 against K103A mutant virus
[14] = Human immunodeficiency virus 1, read-out: EC50 against K103E mutant virus
[15] = Human immunodeficiency virus 1, read-out: EC50 against Y181C mutant virus
[16] = Human immunodeficiency virus 1, read-out: EC50 against Y188L mutant virus
[17] = Human immunodeficiency virus 1, read-out: EC50 against Y181F mutant virus
[18] = Human immunodeficiency virus 1, read-out: EC50 against Y188F mutant virus
[19] = Human immunodeficiency virus 1, read-out: EC50 against Y181F/Y188F mutant virus
[20] = Human immunodeficiency virus 1, HXB2, single-cycle replication, Hela P4/R5 cells, 48 h, mean ± SD

CC(C)Nc1cccnc1N1CCN(C(=O)c2cc3cc(NS(C)(=O)=O)ccc3[nH]2)CC1 [DLV, delavirdine] showed an EC50 ([1]; Human immunodeficiency virus 1, HXB2, 48 h) of 26 ± 7 nM, an EC50 [2, 11] of 2600 ± 346 nM and an EC50 [3, 12] of 1500 ± 43 nM. The EC50 [4, 13] was 38 ± 12 nM, the EC50 [5, 14] was 64 ± 7 nM and the EC50 [6, 15] was 1150 ± 301 nM. The EC50 [7, 16] was 913 ± 90 nM, the EC50 [8, 17] was 8.6 ± 1.3 nM and the EC50 [9, 18] was 14 ± 4 nM. It also gave an EC50 [10, 19] of 4.1 ± 0.12 nM.
Work on O=C1Nc2ccc(Cl)cc2[C@@](C#CC2CC2)(C(F)(F)F)O1 [EFV, efavirenz] yielded an EC50 [1, 20] of 1.2 nM, an EC50 [2, 11] of 69 ± 5.7 nM and an EC50 [3, 12] of 40 ± 8.1 nM. For the same compound, the EC50 [4, 13] was 2 ± 0.2 nM, the EC50 [5, 14] was 0.9 ± 0.3 nM and the EC50 [6, 15] was 1.4 ± 0.1 nM. For the same compound, the EC50 [7, 16] was 639 ± 63 nM, the EC50 [8, 17] was 0.5 ± 0.07 nM and the EC50 [9, 18] was 0.3 ± 0.05 nM. The “Y188F mutant virus more sensitive to inhibition than WT virus” value ([9]; fold more sensitive than WT virus) was ~ 4 fold, the EC50 [10, 19] was 0.4 ± 0.1 nM and the IC50 (HIV-1 WT RT (non-bio-RT)) was 0.42 nM.
For Cc1ccnc2c1NC(=O)c1cccnc1N2C1CC1 [NVP, nevirapine], the EC50 [1, 20] was 95 ± 6 nM, the EC50 ([2]; Human immunodeficiency virus 1, single-cycle replication, Hela P4/R5 cells, mean ± SD, read-out: EC50 against K103N mutant virus) was 5080 ± 1690 nM and the EC50 ([3]; Human immunodeficiency virus 1, single-cycle replication, Hela P4/R5 cells, mean ± SD, read-out: EC50 against K103N/Y188F mutant virus) was 14500 nM. It also gave an EC50 ([4]; Human immunodeficiency virus 1, single-cycle replication, Hela P4/R5 cells, mean ± SD, read-out: EC50 against K103A mutant virus) of 216 ± 51 nM, an EC50 ([5]; Human immunodeficiency virus 1, single-cycle replication, Hela P4/R5 cells, mean ± SD, read-out: EC50 against K103E mutant virus) of 65 ± 27 nM and an EC50 ([6]; Human immunodeficiency virus 1, single-cycle replication, Hela P4/R5 cells, mean ± SD, read-out: EC50 against Y181C mutant virus) of 2270 ± 197 nM. The EC50 ([7]; Human immunodeficiency virus 1, single-cycle replication, Hela P4/R5 cells, mean ± SD, read-out: EC50 against Y188L mutant virus) was > 25000 nM, the EC50 ([8]; Human immunodeficiency virus 1, single-cycle replication, Hela P4/R5 cells, mean ± SD, read-out: EC50 against Y181F mutant virus) was 37 ± 7 nM and the EC50 ([9]; Human immunodeficiency virus 1, single-cycle replication, Hela P4/R5 cells, mean ± SD, read-out: EC50 against Y188F mutant virus) was 62 ± 11 nM. For the same compound, the EC50 ([10]; Human immunodeficiency virus 1, single-cycle replication, Hela P4/R5 cells, mean ± SD, read-out: EC50 against Y181F/Y188F mutant virus) was 34 ± 2.5 nM and the IC50 (HIV-1 WT RT (non-bio-RT)) was 137 nM.
